The record followed here is article PMC4667271, “Discovery of a Novel Inhibitor of the Protein Tyrosine Phosphatase Shp2” (Scientific Reports, 2015).

The IC50 is the concentration that gives 50% inhibition. A lower IC50 goes with greater potency.

Assay [1] has as its target STEP (Homo sapiens, UniProt P54829). Kind of assay: biochemical. How it is done: (§1) Plasmids for expression of His-tag fusion proteins of human PTP were constructed in PET-28a by PCR subcloning techniques. The constructions contain only the PTP domain except Full-length Shp2. Full-length Shp2 containing Tyr279-to-Ala mutant was generated by PCR-based mutagenesis. All constructs were verified by DNA sequencing. PTP-His fusion proteins were expressed in Escherichia coli BL21 and lysed in the buffer (50 mM NaH2PO4, 300 mM NaCl, 250 mM imidazole, 1 mM dithiothreitol plus 5% glycerol), purified with Ni-NTA Magnetic Agarose Beads (Qiagen). The His-tag recombinant purification protocol was carried out according to the purification under native conditions of the QIAexpress System.
(§2) The assay was set in wells of 96-well plate with a final volume of 100 μl of reaction mixture containing 10 mM of NaAc-HAc, 1 mM of ethylene diamine tetraacetic acid, 1 mM of DL-dithiothreitol and 2% of dimethyl sulfoxide, pH 5.5. Activity of the enzyme was assayed by incubating recombinant PTP protein or mutant PTP with various concentrations of Fumos in the mixture at 37 °C for 30 min. Absorbance at 405 nm was detected immediately after addition of varied concentrations of substrate, p-nitrophenyl phosphate (pNPP) to each corresponding well.

The target of assay [2] is PTPRA (Homo sapiens, UniProt P18433). Kind of assay: biochemical. Here is the method: as §1, §2
For assay [3], the system named is Gab1-Shp2 association in HEK293T cells. Briefly: Gab1-Shp2 co-immunoprecipitation, HEK293T. In kind it is cell-based, human. Here is the method: Figure 3 Fumos inhibits Gab1-Shp2 association. HEK293T cells were serum-starved for 18 h, preincubated with or without Fumos (20 μM 24 h), and then treated with EGF (20 ng/ml, 5 min). (a) Shp2 was immunoprecipitated from cell lysate supernatants. (b) Gab1 was immunoprecipitated from cell lysate supernatants. Immunoprecipitates were analyzed by immunoblotting with antibodies to Gab1, RasGAP, pY and Shp2. (c) Densitometric analysis of p-Gab1/Shp2 ratio in the Western blots. **p = 0.002 < 0.01/F = 37 vs EGF. (d) Densitometric analysis of RasGAP/Gab1 ratio in the Western blots. **p < 0.01/F = 30 vs EGF, one-way ANOVA followed by Tukey’s test. Bars represent mean ± S.E.M. values from three experiments.
Cells were washed with cold PBS twice and lysed in cell lysis buffer for 10 min on ice. Then the lytic cells were centrifugated with 13,000 g for 10 min at 4 °C. The supernatant was transferred to a fresh conical centrifuge tube on ice and added 1 μg of the appropriate control IgG, together with 20 μl of resuspended volume of Protein A/G PLUS-Agarose (Santa Cruz Biotechnology, CA), then incubated at 4 °C for 30 min. The pellet beads were centrifugated at 1,000 g for 5 min at 4 °C. The supernatant with approximately 100–500 μg total cellular protein was incubated with 2 μg primary antibody against Shp2 or Gab1 for 7 h at 4 °C. Then lysates containing protein-antibody complexes were incubated with 20 μl of Protein A/G PLUS-Agarose at 4 °C on a rotating device overnight. Immunoprecipitates were collected by centrifugation at 2,500 rpm and washed for 4 times with 1 ml lysis buffer, then suspended in the loading buffer, boiled, and analyzed by SDS-PAGE.

For assay [4], the target named is TCPTP (Homo sapiens, UniProt P17706). Briefly: in vitro PTP assay (pNPP), TCPTP. It counts as biochemical. Here is the method: as §1, §2
Assay [5] has as its target T1, Shp2 PTP domain (Homo sapiens, UniProt Q06124).
T1 sequence (Q06124 247-517 limits assumed): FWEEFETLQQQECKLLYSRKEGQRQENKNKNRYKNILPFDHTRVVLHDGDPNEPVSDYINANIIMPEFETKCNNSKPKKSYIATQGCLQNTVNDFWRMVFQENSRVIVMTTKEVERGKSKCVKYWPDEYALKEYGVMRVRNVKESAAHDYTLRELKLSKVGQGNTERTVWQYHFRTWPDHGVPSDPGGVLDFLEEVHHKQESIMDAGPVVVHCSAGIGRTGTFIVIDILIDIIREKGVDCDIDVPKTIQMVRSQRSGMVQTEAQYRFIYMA
Briefly: in vitro PTP assay (pNPP), Shp2 PTP domain. In kind it is biochemical. How it is done:
as §1, §2

The subject of assay [6] is MDA-MB-231 cells. Briefly: Transwell invasion assay, MDA-MB-231. It counts as cell-based, human. The settings on record: 4 and 14 μM, 24 h, EGF in lower chamber. Here is the method:
The invasion assay was performed in Transwell chambers according to Corning methods. Briefly, the upper chamber of a Transwell insert ([…] pore size) was coated with 40 μl 1:6 mixture of Matrigel (BD Biosciences, Bedford): Opti-MEM (Invitrogen) for MDA-MB-231 and 40 μl 1:12 mixture of Matrigel: Opti-MEM (Invitrogen) for HeLa cells and dried for 2 h at 37 °C. The lower chamber was filled with serum-free media containing 10 ng/ml EGF. Cells were seeded into upper chamber at a density 5 × 10^4 cells/ml per well in serum-free media. Cells were treated with series concentrations of Fumos for 24 h. The top aspect of the membrane was gently swabbed the inside of each insert using cotton swabs, and cells that invaded on the lower surface of the membrane were fixed using methanol and stained with crystal violet (Beyotime Institute of Biotechnology). Random fields were counted and photographed by microscope (Olympus).

The target of assay [7] is Cdc25b (Homo sapiens, UniProt P30305). Kind of assay: in vitro PTP assay (pNPP), Cdc25b. It counts as biochemical. Here is the method: as §1, §2
Assay [8] deals with Src and Paxillin phosphorylation in HeLa cells. Briefly: Src, PLCγ1 and Paxillin phosphorylation, Western blot, HeLa. It counts as cell-based, human. The settings on record: 10-40 μM 24 h, EGF. The source says:
Figure 6 Fumos affects the phosphorylation of Src and Paxillin. […] DMSO treatment as control. Western blotting analysis for the expression of p-Src(Tyr416) p-Src (Tyr530), Src, p-PLCγ1, PLCγ1, p-Paxillin(Tyr118), p-Paxillin (Tyr31) and Paxillin. (b,c) Densitometric analysis of pSrc530/Src in the Western blots of Hela and MDA-MB-231, respectively. Bars represent mean ± S.E.M. values from three experiments, **p = 0.006 < 0.01/F = 8 vs EGF, one-way ANOVA followed by Tukey’s test.
After centrifugation, the supernatant was collected.
In general terms: A western blot detects proteins with antibodies after separation by electrophoresis.

Sequence of PTPRA (P18433 241-501 limits assumed): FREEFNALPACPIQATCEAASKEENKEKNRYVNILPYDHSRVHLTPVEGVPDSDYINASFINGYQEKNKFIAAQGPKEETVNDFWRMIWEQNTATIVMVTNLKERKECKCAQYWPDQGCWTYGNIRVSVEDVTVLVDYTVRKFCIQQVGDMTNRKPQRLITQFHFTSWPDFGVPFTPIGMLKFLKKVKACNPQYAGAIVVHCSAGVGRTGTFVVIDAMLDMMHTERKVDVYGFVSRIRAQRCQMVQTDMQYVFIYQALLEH
Sequence of STEP (P54829 300-555 limits assumed): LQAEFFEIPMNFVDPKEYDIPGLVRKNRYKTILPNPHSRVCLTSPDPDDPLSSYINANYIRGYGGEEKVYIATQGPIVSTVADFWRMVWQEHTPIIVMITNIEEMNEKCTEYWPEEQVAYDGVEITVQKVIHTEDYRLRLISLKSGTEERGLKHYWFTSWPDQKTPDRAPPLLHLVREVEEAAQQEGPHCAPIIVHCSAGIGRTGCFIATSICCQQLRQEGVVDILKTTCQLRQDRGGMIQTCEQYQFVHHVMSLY
Sequence of TCPTP (P17706 5-275 limits assumed): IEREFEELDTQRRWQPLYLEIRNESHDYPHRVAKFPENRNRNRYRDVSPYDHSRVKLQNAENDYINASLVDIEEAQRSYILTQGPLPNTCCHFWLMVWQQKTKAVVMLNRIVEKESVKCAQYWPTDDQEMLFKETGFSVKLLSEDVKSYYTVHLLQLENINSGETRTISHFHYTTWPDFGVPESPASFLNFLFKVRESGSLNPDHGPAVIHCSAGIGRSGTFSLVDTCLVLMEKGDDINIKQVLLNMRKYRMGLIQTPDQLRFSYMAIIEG
Sequence of Cdc25b (P30305 431-538 limits assumed): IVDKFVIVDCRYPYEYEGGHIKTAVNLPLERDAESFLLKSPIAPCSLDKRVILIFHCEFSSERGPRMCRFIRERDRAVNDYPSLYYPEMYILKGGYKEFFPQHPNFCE

On to `CC[C@@H](C)C[C@@H](C)/C=C(C)/C=C/C=C/C=C(\C)C(=O)c1c(O)c(-c2ccc(O)cc2)cn(O)c1=O` [Fumos, Fumosorinone], for which the IC50 in assay [1] (STEP PTP domain) is > 100 µM; in assay [2] (PTPRA PTP domain), > 100 µM; in assay [4] (TCPTP PTP domain), 29.7 ± 0.42 µM; in assay [5] it was 6.31 ± 0.52 µM; in assay [7] (Cdc25b PTP domain) it was > 100 µM. Moreover, the IC50 selective is given as >16 in assay [1] (STEP relative to Shp2 PTP domain); >16 in assay [2] (PTPRA relative to Shp2 PTP domain); ~5 in assay [4] (TCPTP relative to Shp2 PTP domain); 1 in assay [5] (Shp2 relative to Shp2 PTP domain); >16 in assay [7] (Cdc25b relative to Shp2 PTP domain). For the same compound, in assay [3] (EGF-stimulated, Fumos 20 μM 24 h), the “RasGAP coimmunoprecipitated with Gab1” value is “dramatically increased”. Besides, the “EGF-stimulated Gab1-Shp2 association (Gab1 in Shp2 immunoprecipitates)” value in assay [3] (Fumos 20 μM 24 h, EGF 20 ng/ml 5 min) is recorded as “much less Gab1 proteins were found”. Moreover, the “Gab1-Shp2 association without EGF” value in assay [3] (Fumos alone) is listed as “induces Gab1-Shp2 association”. Also, the “tyrosine-phosphorylation of Gab1” value in assay [3] (Fumos alone, no EGF) is on record as “increased”. For the same compound, the “cell invasion (Transwell)” value in assay [6] is recorded as “significantly inhibited”. Besides, the “Src Tyr416 phosphorylation” value in assay [8] is listed as “dose-dependent downregulation”. The “phosphorylated Tyr 530 of Src” value in assay [8] is listed as “moderately increased”. The “phosphorylation of PLCγ1” value in assay [8] is “decreased”. The “phosphorylation of Paxillin at Tyr31” value in assay [8] was “peaked at low concentrations of Fumos and reduced at high concentrations”. The “phosphorylation of Paxillin at Tyr118” value in assay [8] was “decreased with the increasing concentrations”.
